The target in assay [1] is T1, PRKACG (Homo sapiens, UniProt P22612).
T1 construct: endogenous in cells
Description: Kinobeads full dose-response competition binding: PRKACG. The following applies: Gene Name PRKACG.

The target of assay [2] is T2, endogenous kinases and other proteins enriched by Kinobeads from mixed lysates of K-562, COLO-205, MV-4-11, SK-N-BE(2) and OVCAR-8 (Homo sapiens, UniProt Q13131).
T2 construct: endogenous in cells
Description: Kinobeads competition binding profiling, two doses (100 nM and 1 µM).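 Note: inhibitor preincubated 45 min at 4 °C in cell lysate, then bead pulldown. Bound protein quantified by label-free mass spectrometry relative to DMSO vehicle control.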 To be noted: AMPK-alpha1.

Assay [3] deals with T3, endogenous kinases and other proteins enriched by Kinobeads from mixed lysates of K-562, COLO-205, MV-4-11, SK-N-BE(2) and OVCAR-8 (Homo sapiens, UniProt Q16584).
T3 construct: endogenous in cells
The description is as above. To be noted: MLK3.

In assay [4] the target is T4, endogenous kinases and other proteins enriched by Kinobeads from mixed lysates of K-562, COLO-205, MV-4-11, SK-N-BE(2) and OVCAR-8 (Homo sapiens, UniProt Q8TD19).
T4 construct: endogenous in cells
The assay is described as above. The following applies: NEK9.

The target of assay [5] is T5, endogenous kinases and other proteins enriched by Kinobeads from mixed lysates of K-562, COLO-205, MV-4-11, SK-N-BE(2) and OVCAR-8 (Homo sapiens, UniProt Q9H2G2).
T5 construct: endogenous in cells
Described as above. The following applies: SLK.

The target of assay [6] is T6, endogenous kinases and other proteins enriched by Kinobeads from mixed lysates of K-562, COLO-205, MV-4-11, SK-N-BE(2) and OVCAR-8 (Homo sapiens, UniProt Q9Y463).
T6 construct: endogenous in cells
The assay is described as above. To be noted: DYRK1B.

Assay [7] has as its target T7, ACAD11 (Homo sapiens, UniProt Q709F0).
T7 construct: endogenous in cells
T7 sequence (Q709F0 1-780): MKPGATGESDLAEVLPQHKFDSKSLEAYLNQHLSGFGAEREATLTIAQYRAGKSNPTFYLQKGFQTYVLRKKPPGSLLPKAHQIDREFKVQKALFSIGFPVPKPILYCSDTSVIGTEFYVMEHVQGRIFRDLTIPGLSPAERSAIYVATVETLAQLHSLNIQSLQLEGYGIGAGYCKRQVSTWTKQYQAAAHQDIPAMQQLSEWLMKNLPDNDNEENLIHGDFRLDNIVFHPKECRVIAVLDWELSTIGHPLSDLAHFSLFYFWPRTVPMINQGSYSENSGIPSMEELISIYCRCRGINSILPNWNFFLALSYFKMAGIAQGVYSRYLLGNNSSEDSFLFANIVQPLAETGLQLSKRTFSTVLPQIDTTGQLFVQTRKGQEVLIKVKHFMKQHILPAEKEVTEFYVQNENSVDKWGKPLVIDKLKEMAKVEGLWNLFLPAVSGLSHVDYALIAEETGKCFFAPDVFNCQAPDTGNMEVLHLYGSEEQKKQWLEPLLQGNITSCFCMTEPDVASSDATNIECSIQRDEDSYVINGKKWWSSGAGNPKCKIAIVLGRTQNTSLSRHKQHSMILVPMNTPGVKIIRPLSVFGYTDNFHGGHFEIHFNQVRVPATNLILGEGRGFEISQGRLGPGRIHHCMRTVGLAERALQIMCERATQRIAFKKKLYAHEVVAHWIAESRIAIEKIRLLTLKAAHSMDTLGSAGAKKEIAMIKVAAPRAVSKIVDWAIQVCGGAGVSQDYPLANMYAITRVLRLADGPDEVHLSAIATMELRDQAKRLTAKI
The experiment in a line: Kinobeads two-dose competition binding: ACAD11. The following applies: read-out: Lestaurtinib Drugmatrix value, Gene Name ACAD11.

Assay [8] concerns the target T8, AURKB (Homo sapiens, UniProt Q96GD4).
T8 construct: endogenous in cells
The experiment in a line: Kinobeads two-dose competition binding: AURKB. To be noted: read-out: Lestaurtinib Drugmatrix value, Gene Name AURKB.

The target in assay [9] is T9, FYN (Homo sapiens, UniProt P06241).
T9 construct: endogenous in cells
The experiment in a line: Kinobeads two-dose competition binding: FYN. The following applies: read-out: Lestaurtinib Drugmatrix value, Gene Name FYN; target FYN; each column = one Lestaurtinib control replicate (batch_R1-R3).

The target of assay [10] is T10, PIM1 (Homo sapiens, UniProt P11309).
T10 construct: a mixture of lysates from five cancer cell lines; endogenous in cells
The experiment in a line: Kinobeads competition binding, Lestaurtinib control replicates: PIM1. The following applies: read-out: Lestaurtinib Drugmatrix value; Gene Name PIM1; one column per experiment number and replicate (R1-R3).

The target in assay [11] is T1, PRKACG. Description: Kinobeads competition binding, Lestaurtinib control replicates: PRKACG. To be noted: read-out: Lestaurtinib Drugmatrix value; Gene Name PRKACG; one column per experiment number and replicate (R1-R3).
In assay [12] the target is T11, PRKAG2 (Homo sapiens, UniProt Q9UGJ0).
T11 construct: endogenous in cells
The experiment in a line: Kinobeads competition binding, Lestaurtinib control replicates: PRKAG2. To be noted: read-out: Lestaurtinib Drugmatrix value, PRKAG2; Gene Name PRKAG2; one column per experiment number and replicate (R1-R3).

The test system of assay [13] is IL-10 secretion in primary bone marrow-derived dendritic cells (BMDCs). The experiment in a line: IL-10 cytokine secretion assay (ELISA) in Zymosan-stimulated primary BMDCs. To be noted: murine BMDCs, inhibitor 30 min before Zymosan stimulation. The assay is classed as cell-based, mouse. The protocol:
A subsequent full dose–response experiment confirmed potent and selective binding to SYK ( Kdapp = 58 nM, […] = 0.60; Extended Data Fig. 5a,b). […] One of the effects of Zymosan is that it activates Dectin-1 signaling, in turn activating SYK and leading to increased IL-10 cytokine production (Fig. 3c)[34]. Treatment of cells with the respective SYK inhibitors before Zymosan stimulation indeed led to decreased levels of IL-10 in a dose-dependent fashion (Fig. 3d). […] In line with the cytokine readout, we observed a dose depended reduction of pTyr525/526 indicating SYK inhibition in live cells (Fig. 3e and Extended Data Fig. 5c).
Primary BMDCs were obtained from 9-week-old C57BL/6 mice that were maintained under standard specific pathogen-free conditions. BMDCs were differentiated for 7 days in Roswell Park Memorial Institute medium (Gibco) and granulocyte-macrophage colony-stimulating factor. On day seven, BMDCs were seeded in 96-well plates at 10^5 cells per well in 100 µl of culture medium followed by incubation for 4 h at 37 °C. Subsequently, cells were incubated with SYK inhibitors for 30 min followed by stimulation with Zymosan (final concentration of 50 µg ml^−1; Invivogen) and dispersed in culture medium for 24 h. […] For cytokine secretion quantification, cell culture medium was collected and concentrations of IL-10 in the supernatant were determined using mouse enzyme-linked immunosorbent assay kits (IL-10: Invitrogen) according to the manufacturer’s protocol. Experiments were performed in biological triplicates.
(In general: In an ELISA, binding on a coated surface is turned into a signal by an enzyme label.)

Where “and” joins values, the source holds several entries; their conditions need not be identical. Equal values may be shown once.

The EC50 is the concentration needed to bring the measured effect to its halfway point. High values mean weaker potency, low ones greater potency. Turning to `CCn1c(-c2nonc2N)nc2c(C#CC(C)(C)O)nc(OCCNC)cc21` [GSK949675A], in assay [1] (0.3nM compound, DMSO = 1), the “Relative Intensity 0.3nM” value stood at 0.6931. Also, the “Relative Intensity 1nM” value in assay [1] (1nM compound, DMSO = 1) amounted to 0.8057. Moreover, the “Relative Intensity 3nM” value in [1] (3nM compound, DMSO = 1) stood at 0.9707. Besides, in assay [1] (10nM compound, DMSO = 1), the “Relative Intensity 10nM” value was 0.8006. In addition, in assay [1] (30nM compound, DMSO = 1), the “Relative Intensity 30nM” value was 0.7952. In addition, the “Relative Intensity 100nM” value in assay [1] (100nM compound, DMSO = 1) was determined as 0.9305. The “Relative Intensity 300nM” value in [1] (300nM compound, DMSO = 1) was 0.645. Further, the “Relative Intensity 1000nM” value in [1] (1000nM compound, DMSO = 1) was 0.4141. The Kd in assay [1] (EC50 with Correction, doses in nM, read-out: apparent Kd) was 262 nM. The response in assay [1] (eight-dose curve fit, doses in nM) was half-maximal at 303 nM (EC50).
For the compound `COc1cc(Nc2ncc3c(C)nc(-c4cc5ccccc5[nH]4)n3n2)cc(OC)c1OC` [GW869516X], the “Kinobeads Data” value in assay [2], in assay [3], in assay [4], in assay [5] and in [6] was “no target” throughout.
`C[C@]12O[C@H](C[C@]1(O)CO)n1c3ccccc3c3c4c(c5c6ccccc6n2c5c31)CNC4=O` [Lestaurtinib]: the potency estimated from few doses in assay [7] is 890 nM; in assay [8], 146 nM; in [9], 817 nM; in assay [10], 860 nM; in [11], 769 nM; in assay [12], 888 nM (2×) and 629 nM and 352 nM and 850 nM and 720 nM.
As to `Cn1cc(-c2nc(N[C@@H]3CCCC[C@@H]3N)c(F)c3c2C(=O)NC3)cn1` [TAK659], in assay [13], the IL-10 levels result is “dose-dependent reduction”.

The values are drawn from PMC11062922 (Nature Chemical Biology, 2023).
